Assays:
Artemia salina = assay: Toxicity against Artemia salina; type: organism-based; settings: in vivo
Gambusia affinis = assay: Ichthyotoxicity against Gambusia affinis at 10 ppm within 24 hrs; type: organism-based; settings: in vivo

## CC1=C[C@@H]2Cc3occc3C(C)(C)[C@@H]2C=C1
Artemia salina
  LD50: 1.52 ppm
Gambusia affinis
  Activity: Toxic
